Laboratory results as given in patent publication US20140336233A1 (priority 2011, published 2014).
Read-outs that look alike come from different tables or passages of the source.

How the values were obtained:
Phytophthora infestans [1] = assay type: in vivo, Phytophthora infestans on potato plants (variety Bintje); details: for Efficacy (Abbott formula): Trial 1, potato, spray 24 h before inoculation, notation 5 days after contamination
Phytophthora infestans [2] = assay type: in vivo, Phytophthora infestans on tomato plants (variety Rentita); details: Trial 3, tomato, preventive 24 h, notation 6 days after contamination
Peronospora parasitica = assay: In vivo test against Peronospora parasitica (crucifer downy mildew); parameters: species or system Peronospora parasitica on cabbage plants (Eminence variety); details: cabbage, spray 24 h before contamination, grading 5 days
Description: Spirotetramat is prepared by dilution of the SC100 g/l formulation in water to obtain the desired active material concentration.
Cabbage plants (Eminence variety) in starter cups, sown on a 50/50 peat soil-pozzolana substrate and grown at 18-20° C., are treated at the cotyledon stage by spraying with the aqueous suspension described above at 500, 125 and 31 mg/l.
Plants, used as controls, are treated with an aqueous solution not containing the active material.
After 24 hours, the plants are contaminated by spraying them with an aqueous suspension of Peronospora parasitica spores (37 500 spores per ml). The spores are collected from infected plants.
The contaminated cabbage plants are incubated for 5 days at 20° C., under a humid atmosphere.
(§1) Grading is carried out 5 days after the contamination, in comparison with the control plants.

Plasmopara viticola = assay: In vivo test against Plasmopara viticola (vine downy mildew); details: from 25 to 200 g a.i./ha, spray 24 h before inoculation, grading 5 days (FIG. 4)
Description: The treatment is done by spray application in a spray cabinet at 500 L/ha with the aqueous dilutions of spirotetramat SC100 g/l formulation from 25 to 200 g a.i./ha.
The treatment is applied on six vine plants (Cabernet sauvignon variety, 9 weeks old) 24 hours and the plants are placed in a climatic chamber at 18° C. before inoculation.
The inoculation consists on spraying the sporangia suspension calibrated at 100 000 sporangia/ml, at the lower leaf face of each plant 24 h after the treatment and the plants are then placed in a climatic chamber at 18° C. day and night with saturate humidity until the symptoms assessment.
as §1

What does the source list for `CCOC(=O)OC1=C(c2cc(C)ccc2C)C(=O)N[C@]12CC[C@@H](OC)CC2` [spirotetramat]?
Efficacy (Abbott formula) (Phytophthora infestans [1]; 100 g a.i./ha): 86%; Efficacy (Abbott formula) (Phytophthora infestans [1]; 1000 g a.i./ha): 99%; Efficacy compared with standards (Phytophthora infestans [1]; Trial 2, potato, around 150 g a.i./ha, high disease pressure, preventive 24 h (FIG. 2)): equivalent to the best standard; Efficacy, disease controlled (Phytophthora infestans [2]; 100 g a.i./ha): 95%; Efficacy, disease controlled (Phytophthora infestans [2]; 200 g a.i./ha): 95%; Activity on Peronospora parasitica (Peronospora parasitica; 31 mg/l active ingredient): 100%; Activity on Peronospora parasitica (Peronospora parasitica; 125 mg/l active ingredient): 100%; Activity on Peronospora parasitica (Peronospora parasitica; 500 mg/l active ingredient): 100%; Activity against Plasmopara viticola vine downy mildew (Plasmopara viticola): 100%
